Data taken from patent publication US6531465B1 (priority 1995, dated 2003).

What was measured:
[1] = test system: Pseudomonas aeruginosa strain 27853; experiment: Agar Dilution Test (NCCLS), Pseudomonas aeruginosa; type: cell-based
Description: In particular, the active compounds of the invention show antimicrobial, e.g. antibacterial, activity against gram negative and gram positive bacteria such as Pseudomonas, e.g. Pseudomonas aeruginosa, Pseudomonas fluorescens; Enterobacter, e.g. Enterobacter cloacae; Enterococcus, e.g. Enterococcus faecalis; Moraxella, e.g. Moraxella catarrhalis; Haemophilus, e.g. Haemophilus influenza; Klebsiella, e.g. Klebsiella edwardsii, Klebsiella pneumoniae; Streptococcus, e.g. Streptococcus pneumoniae, Streptococcus durans, Streptococcus faecium, Streptococcus pyogenes; Staphylococcus, e.g. Staphylococcus aureus, Staphylococcus pyogenes; Escherichia, e.g. Escherichia coli; and Proteus, e.g. Proteus mirabilis in vitro in the Agar Dilution Test according to National Commitee for Clinical Laboratory Standards (NCCLS) 1993, Document M7-A3Vol.13, No. 25: “Methods for dilution Antimicrobial Susceptibility Tests for Bacteria that Grow Aerobically—Third Edition, Approved Standard” and in vivo in the septikaemic mouse model. […]
It has, for example, been determined that the MHK (μg/ml) of the compound of Example 139 against, for example Enterococcus faecalis strains ATTC 29212 or ATCC 51299, is of ca. 0.08 to 0.25; ainst Staphylococcus aureus strains ATCC 29213 or ATCC 9144 is of ca. 0.2 to 0.4 and against Pseudomonas aeruginosa strain 27853 is ca. 0.8.

[2] = test system: Streptococcus pneumoniae, strain ATCC 49619; experiment: Agar Dilution Test (NCCLS), Streptococcus pneumoniae; type: cell-based; settings: Example 139 tested in form of the trihydrochloride
Description: In particular, the active compounds of the invention show antimicrobial, e.g. antibacterial, activity against gram negative and gram positive bacteria such as Pseudomonas, e.g. Pseudomonas aeruginosa, Pseudomonas fluorescens; Enterobacter, e.g. Enterobacter cloacae; Enterococcus, e.g. Enterococcus faecalis; Moraxella, e.g. Moraxella catarrhalis; Haemophilus, e.g. Haemophilus influenza; Klebsiella, e.g. Klebsiella edwardsii, Klebsiella pneumoniae; Streptococcus, e.g. Streptococcus pneumoniae, Streptococcus durans, Streptococcus faecium, Streptococcus pyogenes; Staphylococcus, e.g. Staphylococcus aureus, Staphylococcus pyogenes; Escherichia, e.g. Escherichia coli; and Proteus, e.g. Proteus mirabilis in vitro in the Agar Dilution Test according to National Commitee for Clinical Laboratory Standards (NCCLS) 1993, Document M7-A3Vol.13, No. 25: “Methods for dilution Antimicrobial Susceptibility Tests for Bacteria that Grow Aerobically—Third Edition, Approved Standard” and in vivo in the septikaemic mouse model. The active compounds of the invention show activity in the mouse when administerd at dosages from about 0.05 to 50 mg/kg body weight (ED50 values).The active compounds show an MHK(μg/ml) in the Agar Dilution Test from about 0.005 to ca. 50. The active compounds of the invention show an surprising overall activity spectrum.

Compound | MHK [1] | MHK [2]
7-[[(5-Amino-1,2,4-thiadiazol-3-yl)-(Z)-(fluormethoxyimino)acetyl]amino]-3-[[(piperazinoiminomethyl)hydrazono]methyl]-3-cephem-4-carboxylic acid [Example 139] | ca. 0.8 μg/ml | ca. 0.01 μg/ml
CO/N=C(\C(=O)N[C@@H]1C(=O)N2C(C(=O)O)=C(CSc3nc(=O)c(=O)[nH]n3C)CS[C@H]12)c1csc(N)n1 [ceftriaxone, reference compound] |  | ca. 0.02 μg/ml
